Results on eight molecules are retold here after patent US10023590B2, “Substituted pyridine compounds having herbicidal activity” (BASF SE, priority 2014, dated 2018).

Common to all, as to type: in vivo
Series [1] has as its system Oryza sativa. The experiment in a line: Greenhouse post-emergence herbicidal activity on crop ORYSA (rice). From the text: (§1) The culture containers used were plastic flowerpots containing loamy sand with approximately 3.0% of humus as the substrate. The seeds of the test plants were sown separately for each species.
(§2) For the post-emergence treatment, the test plants were first grown to a height of 3 to 15 cm, depending on the plant habit, and only then treated with the active ingredients which had been suspended or emulsified in water. For this purpose, the test plants were either sown directly and grown in the same containers, or they were first grown separately as seedlings and transplanted into the test containers a few days prior to treatment.
(§3) Depending on the species, the plants were kept at 10-25° C. or 20-35° C., respectively.
(§4) The test period extended over 2 to 4 weeks. During this time, the plants were tended, and their response to the individual treatments was evaluated.
(§5) Evaluation was carried out using a scale from 0 to 100. 100 means no emergence of the plants, or complete destruction of at least the aerial moieties, and 0 means no damage, or normal course of growth. A good herbicidal activity is given at values of at least 70 and a very good herbicidal activity is given at values of at least 85.

Series [2] deals with Amaranthus retroflexus. The experiment in a line: Greenhouse post-emergence herbicidal activity, AMARE. As to conditions: AMARE; for pest or weed control at 250 g/ha: 0.25 kg/ha; for pest or weed control at 31 g/ha: 0.031 kg/ha.
Text: as §1, §2, §3, §4, §5

Series [3] deals with Zea mays. The experiment in a line: Greenhouse post-emergence herbicidal activity on crop ZEAMX (corn, maize). The arrangement: key: 0 = no damage/normal growth, 100 = no emergence or complete destruction.
Text: as §1, §2, §3, §4, §5

The subject of series [4] is Chenopodium album. Briefly: Greenhouse post-emergence herbicidal activity, CHEAL. As to conditions: for pest or weed control at 250 g/ha: 0.25 kg/ha.
Text: as §1, §2, §3, §4, §5

For series [5], the system named is Echinocloa crus-galli. The experiment in a line: Greenhouse post-emergence herbicidal activity, ECHCG. As to conditions: Echinochloa crus-galli, ECHCG; for pest or weed control at 250 g/ha: 0.25 kg/ha.
Text: as §1, §2, §3, §4, §5

The mark [6] stands for this setting: ORYSA (rice, crop), 0.125 kg/ha, scale 0 to 100.
Where [7] appears, read: ZEAMX (corn, crop), 0.125 kg/ha, scale 0 to 100.
Setting [8] is: ORYSA (rice, crop), 0.031 kg/ha, scale 0 to 100.
[9] abbreviates: ORYSA (rice, crop), 0.063 kg/ha, scale 0 to 100.
Setting [10] is: ZEAMX (corn, crop), 0.031 kg/ha, scale 0 to 100.
Setting [11] is: ZEAMX (corn, crop), 0.063 kg/ha, scale 0 to 100.
[12] abbreviates: ZEAMX (corn, crop), 0.25 kg/ha, scale 0 to 100.
Setting [13] is: crop ORYSA (rice), application rate 0.031 kg/ha.
Where [14] appears, read: crop ORYSA (rice), application rate 0.063 kg/ha.
Where [15] appears, read: crop ORYSA (rice), application rate 0.125 kg/ha.
[16] abbreviates: crop ZEAMX (corn, maize), application rate 0.031 kg/ha.
Where [17] appears, read: crop ZEAMX (corn, maize), application rate 0.063 kg/ha.

With `CS(=O)(=O)Nc1c(Cl)ccc(C2=C(O)c3ncccc3CS2(=O)=O)c1Cl` [I-1, N-[2,6-dichloro-3-(8-hydroxy-6,6-dioxo-5H-thiopyrano[4,3-b]pyridin-7-yl)phenyl]methanesulfonamide], the Herbicidal activity is 0 in series [1] (setting [6]); 0 in series [1] (ORYSA (rice, crop), 0.25 kg/ha, scale 0 to 100); 0 in series [3] (setting [7]). In addition, the pest or weed control at 125 g/ha in series [2] (0.125 kg/ha, scale 0 to 100) was 75%; in series [4] (0.125 kg/ha, scale 0 to 100), 80%; in series [5] (0.125 kg/ha, scale 0 to 100), 70%. Moreover, the results for the pest or weed control at 250 g/ha in series [2] (scale 0 to 100), in series [4] (scale 0 to 100) and in series [5] (scale 0 to 100) were 80%, 95% and 80%, respectively.
As for `CN(c1ccc(Cl)c(C2=C(O)c3ncccc3CS2(=O)=O)c1Cl)S(C)(=O)=O` [I-4, N-[2,4-dichloro-3-(8-hydroxy-6,6-dioxo-5H-thiopyrano[4,3-b]pyridin-7-yl)phenyl]-N-methyl-methanesulfonamide], the Herbicidal activity in series [1] (setting [8]) is 25; in series [1] (setting [9]), 35; in series [1] (setting [6]) it was 50; in series [3] (setting [10]), 0; in series [3] (setting [11]), 20; in series [3] (setting [7]), 55. Also, the pest or weed control at 31 g/ha in series [2] (scale 0 to 100) came to 90%; in series [4] (0.031 kg/ha, scale 0 to 100), 85%; in series [5] (0.031 kg/ha, scale 0 to 100) it was 98%. The pest or weed control at 63 g/ha in series [2] (0.063 kg/ha, scale 0 to 100) came out at 90%; in series [4] (0.063 kg/ha, scale 0 to 100) it was 95%; in series [5] (0.063 kg/ha, scale 0 to 100), 90%. The pest or weed control at 125 g/ha in series [2] (0.125 kg/ha, scale 0 to 100) was determined as 98%; in series [4] (0.125 kg/ha, scale 0 to 100), 100%; in series [5] (0.125 kg/ha, scale 0 to 100) it was 98%. Further, the pest or weed control at 250 g/ha in series [2] (scale 0 to 100) worked out at 98%; in series [4] (scale 0 to 100) it was 100%; in series [5] (scale 0 to 100), 100%.
For `CN(c1cccc(C2=C(O)c3ncccc3CS2(=O)=O)c1Cl)S(C)(=O)=O` [I-15, N-[2-chloro-3-(8-hydroxy-6,6-dioxo-5H-thiopyrano[4,3-b]pyridin-7-yl)phenyl]-N-methyl-methanesulfonamide], the Herbicidal activity is on record as 0 in series [1] (setting [8]), 0 in series [1] (setting [9]), 20 in series [1] (setting [6]) and 35 in series [3] (setting [7]). In addition, the pest or weed control at 31 g/ha in series [2] (scale 0 to 100) was 75%; in series [4] (0.031 kg/ha, scale 0 to 100), 90%; in series [5] (0.031 kg/ha, scale 0 to 100), 85%. In addition, the pest or weed control at 63 g/ha in series [2] (0.063 kg/ha, scale 0 to 100) amounted to 85%; in series [4] (0.063 kg/ha, scale 0 to 100), 98%; in series [5] (0.063 kg/ha, scale 0 to 100), 90%. The pest or weed control at 125 g/ha was found to be 90% in series [2] (0.125 kg/ha, scale 0 to 100); 98% in series [4] (0.125 kg/ha, scale 0 to 100); 98% in series [5] (0.125 kg/ha, scale 0 to 100).
`CCS(=O)(=O)N(C)c1c(Cl)ccc(C2=C(O)c3ncccc3CS2(=O)=O)c1Cl` [I-18, N-[2,6-dichloro-3-(8-hydroxy-6,6-dioxo-5H-thiopyrano[4,3-b]pyridin-7-yl)phenyl]-N-methyl-ethanesulfonamide]: the Herbicidal activity in series [1] (setting [8]) amounted to 30; in series [3] (setting [10]) it was 0; in series [3] (setting [11]), 25; in series [3] (setting [7]) it was 25; in series [3] (setting [12]), 35. Also, the pest or weed control at 31 g/ha in series [2] (scale 0 to 100) was 100%; in series [4] (0.031 kg/ha, scale 0 to 100), 100%; in series [5] (0.031 kg/ha, scale 0 to 100), 98%. Besides, the pest or weed control at 63 g/ha turned out to be 100% in series [2] (0.063 kg/ha, scale 0 to 100); 100% in series [4] (0.063 kg/ha, scale 0 to 100); 100% in series [5] (0.063 kg/ha, scale 0 to 100). The pest or weed control at 125 g/ha in series [2] (0.125 kg/ha, scale 0 to 100) amounted to 100%; in series [4] (0.125 kg/ha, scale 0 to 100), 100%; in series [5] (0.125 kg/ha, scale 0 to 100), 100%. The pest or weed control at 250 g/ha in series [2] (scale 0 to 100), in series [4] (scale 0 to 100) and in series [5] (scale 0 to 100) was 100% each time.
For `CN(c1c(Cl)ccc(C2=C(O)c3ncccc3CS2(=O)=O)c1Cl)S(=O)(=O)CC1CC1` [I-20, 1-cyclopropyl-N-[2,6-dichloro-3-(8-hydroxy-6,6-dioxo-5H-thiopyrano[4,3-b]pyridin-7-yl)phenyl]-N-methyl-methanesulfonamide], the pest or weed control at 31 g/ha in series [2] (scale 0 to 100) worked out at 90%; in series [4] (0.031 kg/ha, scale 0 to 100), 100%; in series [5] (0.031 kg/ha, scale 0 to 100) it was 100%. Further, the pest or weed control at 63 g/ha is 90% in series [2] (0.063 kg/ha, scale 0 to 100); 100% in series [4] (0.063 kg/ha, scale 0 to 100); 100% in series [5] (0.063 kg/ha, scale 0 to 100). Besides, the pest or weed control at 125 g/ha in series [2] (0.125 kg/ha, scale 0 to 100) was determined as 100%; in series [4] (0.125 kg/ha, scale 0 to 100) it was 100%; in series [5] (0.125 kg/ha, scale 0 to 100), 100%. Also, the Herbicidal activity in series [3] (setting [10]), in series [3] (setting [11]) and in series [3] (setting [7]) was 0 each time.
Turning to `CS(=O)(=O)N(c1c(Cl)ccc(C2=C(O)c3ncccc3CS2(=O)=O)c1Cl)C1CC1` [I-24, N-cyclopropyl-N-[2,6-dichloro-3-(8-hydroxy-6,6-dioxo-5H-thiopyrano[4,3-b]pyridin-7-yl)phenyl]methanesulfonamide], the Herbicidal activity in series [1] (setting [8]) is given as 0; in series [1] (setting [9]), 15; in series [1] (setting [6]), 20; in series [3] (setting [10]) it was 0; in series [3] (setting [11]), 0; in series [3] (setting [7]), 15. Besides, in series [3] (setting [12]), the Herbicidal activity was 15. Also, the pest or weed control at 31 g/ha in series [2] (scale 0 to 100) came to 70%; in series [4] (0.031 kg/ha, scale 0 to 100), 80%; in series [5] (0.031 kg/ha, scale 0 to 100), 80%. Besides, the pest or weed control at 63 g/ha in series [2] (0.063 kg/ha, scale 0 to 100) amounted to 75%; in series [4] (0.063 kg/ha, scale 0 to 100) it was 85%; in series [5] (0.063 kg/ha, scale 0 to 100), 85%. The pest or weed control at 125 g/ha in series [2] (0.125 kg/ha, scale 0 to 100) worked out at 85%; in series [4] (0.125 kg/ha, scale 0 to 100), 90%; in series [5] (0.125 kg/ha, scale 0 to 100), 90%. Further, the pest or weed control at 250 g/ha in series [2] (scale 0 to 100) worked out at 90%; in series [4] (scale 0 to 100), 98%; in series [5] (scale 0 to 100), 95%.
`CN(c1cccc(C2=C(O)c3ncccc3CS2(=O)=O)c1S(C)(=O)=O)S(C)(=O)=O` [I-33, N-[3-(8-hydroxy-6,6-dioxo-5H-thiopyrano[4,3-b]pyridin-7-yl)-2-methylsulfonyl-phenyl]-N-methyl-methanesulfonamide]: the Herbicidal activity in series [1] (setting [13]) amounted to 0; in series [1] (setting [14]) it was 20; in series [1] (setting [15]) it was 10; in series [3] (setting [16]) it was 0; in series [3] (setting [17]), 0; in series [3] (crop ZEAMX (corn, maize), application rate 0.125 kg/ha), 0. The pest or weed control at 63 g/ha is 85% in series [2] (application rate 0.063 kg/ha) and 98% in series [4] (application rate 0.063 kg/ha). Further, the pest or weed control at 125 g/ha in series [2] (application rate 0.125 kg/ha) and in series [4] (application rate 0.125 kg/ha) was 90% throughout. Further, in series [4] (application rate 0.031 kg/ha), the pest or weed control at 31 g/ha stood at 85%.
Consider `CN(c1c(Cl)ccc(C2=C(O)c3ncc(F)cc3CS2(=O)=O)c1Cl)S(C)(=O)=O` [I-37, N-[2,6-dichloro-3-(3-fluoro-8-hydroxy-6,6-dioxo-5H-thiopyrano[4,3-b]pyridin-7-yl)phenyl]-N-methyl-methanesulfonamide], for which the Herbicidal activity in series [1] (setting [13]), in series [1] (setting [14]), in series [1] (setting [15]), in series [3] (setting [16]) and in series [3] (setting [17]) was 0 throughout. In addition, the pest or weed control at 31 g/ha in series [4] (application rate 0.031 kg/ha) and in series [5] (application rate 0.031 kg/ha) was 90% throughout. Also, the pest or weed control at 63 g/ha in series [4] (application rate 0.063 kg/ha) and in series [5] (application rate 0.063 kg/ha) was 90% each time. In addition, the results for the pest or weed control at 125 g/ha in series [4] (application rate 0.125 kg/ha) and in series [5] (application rate 0.125 kg/ha) were 90% and 95%, respectively.
